Calls of active or inactive are those of the source. The rule behind the calls is not given here.
Legend:
Rattus norvegicus [1] = assay: Hypoglycemic activity in fasted Sprague-Dawley rat assessed as reduction of blood glucose level at 100 mg/kg, po relative to control; assay type: functional; set-up: scale not given: the % may be the effect or the level left
Rattus norvegicus [2] = assay: Narcotic analgesic activity in fasted Sprague-Dawley rat at 240 mg/kg, po measured at 15 mins by D'Amour-Smith tail-flick test relative to control; assay type: functional
Mus musculus [3] = assay: Analgesic activity in Swiss-Webster mouse assessed as reduction of acetylcholine-induced writhing at 25 mg/kg, sc relative to control; assay type: functional; set-up: scale not given: the % may be the effect or the level left; conditions: route subcutaneous
Rattus norvegicus [4] = assay: Narcotic analgesic activity in fasted Sprague-Dawley rat at 240 mg/kg, po measured at 60 mins by D'Amour-Smith tail-flick test relative to control; assay type: functional
Rattus norvegicus [5] = assay: Hypoglycemic activity in Sprague-Dawley rat assessed as reduction of blood glucose level at 100 mg/kg, po by glucagon-impaired glucose disposal test relative to control; assay type: functional; set-up: scale not given: the % may be the effect or the level left
Mus musculus [6] = assay: Analgesic activity in sc dosed Swiss-Webster mouse assessed as reduction of acetylcholine-induced writhing; assay type: functional; conditions: Mus musculus, Swiss-Webster, sc; read-out: ED50
Mus musculus [7] = assay: Analgesic activity in Swiss-Webster mouse assessed as reduction of acetylcholine-induced writhing at 75 mg/kg, sc relative to control; assay type: functional; set-up: scale not given: the % may be the effect or the level left; conditions: route subcutaneous
Rattus norvegicus [8] = assay: Hypoglycemic activity in glucose loaded Sprague-Dawley rat assessed as reduction of blood glucose level at 100 mg/kg, po relative to control; assay type: functional; set-up: scale not given: the % may be the effect or the level left
Rattus norvegicus [9] = assay: Hypoglycemic activity in Sprague-Dawley rat assessed as reduction of blood glucose level at 88 mg/kg, po by glucagon-impaired glucose disposal test relative to control; assay type: functional
Rattus norvegicus [10] = assay: Hypoglycemic activity in Sprague-Dawley rat assessed as reduction of blood glucose level at 89 mg/kg, po by glucagon-impaired glucose disposal test relative to control; assay type: functional; set-up: scale not given: the % may be the effect or the level left
Mus musculus [11] = assay: Analgesic activity in po dosed Swiss-Webster mouse assessed as reduction of acetylcholine-induced writhing; assay type: functional
Mus musculus [12] = assay: Toxicity in Swiss-Webster mouse assessed as stimulation of straub tail at 150 mg/kg, po after 15 to 25 mins; assay type: organism-based; set-up: dose 150 mg/kg, route oral; conditions: in vivo
Rattus norvegicus [13] = assay: Narcotic analgesic activity in po dosed fasted Sprague-Dawley rat measured at 15 mins by D'Amour-Smith tail-flick test; assay type: functional; conditions: 0.25 h
Rattus norvegicus [14] = assay: Toxicity in Sprague-Dawley rat assessed as tremor at 120 mg/kg, sc; assay type: organism-based; set-up: dose 120 mg/kg, route subcutaneous; conditions: in vivo
Rattus norvegicus [15] = assay: Narcotic analgesic activity in fed Sprague-Dawley rat at 120 mg/kg, sc measured at 30 mins by D'Amour-Smith tail-flick test; assay type: functional; conditions: route subcutaneous
Mus musculus [16] = assay: Toxicity in Swiss-Webster mouse assessed as sedation at 40 mg/kg, sc; assay type: organism-based; set-up: dose 40 mg/kg, route subcutaneous; conditions: in vivo
[17] = Drug level in glucose loaded Sprague-Dawley rat urine treated with methyl (exo,exo)-8-(l-pentyl)-2-(2-thienyl)-8-azabicyclo[3.2.1]octane-3-carboxylate at 20 mg, po administered 3 to 6 hrs measured for 24 hrs by TLC/mass spectrographic analysis; assay type: ADME, organism-based; conditions: in vivo
[18] = Drug level in glucose loaded Sprague-Dawley rat urine treated with (RS-exo,exo)-8-methyl-2-(2-thienyl)-8-azabicyclo[3.2.1]octane-3-carboxylate at 20 mg, po administered 3 to 6 hrs measured for 24 hrs by TLC/mass spectrographic analysis; assay type: ADME, organism-based; conditions: in vivo
Rattus norvegicus [19] = assay: Hypoglycemic activity in Sprague-Dawley rat assessed as reduction of blood glucose level at 87 mg/kg, po by glucagon-impaired glucose disposal test in presence of microsomal enzyme inhibitor SKF 525-A; assay type: functional, organism-based; set-up: dose 87 mg/kg
Rattus norvegicus [20] = assay: Hypoglycemic activity in Sprague-Dawley rat assessed as reduction of blood glucose level at 87 mg/kg, po by glucagon-impaired glucose disposal test relative to control; assay type: functional; set-up: scale not given: the % may be the effect or the level left
Rattus norvegicus [21] = assay: Narcotic analgesic activity in po dosed fasted Sprague-Dawley rat measured at 60 mins by D'Amour-Smith tail-flick test; assay type: functional
Rattus norvegicus [22] = assay: Analgesic activity in po dosed rat assessed as reduction of intraarterial bradykinin-induced pain response; assay type: functional
Rattus norvegicus [23] = assay: Potency index, ratio of codeine ED50 to compound ED50 for analgesic activity in po dosed rat assessed as reduction of intraarterial bradykinin-induced pain response; assay type: functional
Rattus norvegicus [24] = assay: Toxicity in Sprague-Dawley rat assessed as hyperexcitability at >= 120 mg/kg, po; assay type: organism-based; set-up: dose 120 mg/kg, route oral; conditions: in vivo
Rattus norvegicus [25] = assay: Toxicity in Sprague-Dawley rat assessed as tremor at >= 120 mg/kg, po; assay type: organism-based; set-up: dose 120 mg/kg, route oral; conditions: in vivo
Rattus norvegicus [26] = assay: Toxicity in Sprague-Dawley rat assessed as rigidity at >=120 mg/kg, po; assay type: organism-based; conditions: in vivo
Rattus norvegicus [27] = assay: Toxicity in Sprague-Dawley rat assessed as mortality at >= 120 mg/kg, po; assay type: organism-based; set-up: dose 120 mg/kg, route oral; conditions: in vivo
Rattus norvegicus [28] = assay: Narcotic analgesic activity in sc dosed fed Sprague-Dawley rat measured at 30 mins by D'Amour-Smith tail-flick test; assay type: functional; conditions: Rattus norvegicus, Sprague-Dawley, Tail, sc, 0.5 h; read-out: ED50

SMILES: CCCCN1[C@@H]2CC[C@@H]1[C@@H](c1cccs1)[C@@H](C(=O)OC)C2
- Activity (Rattus norvegicus [1]): 34%
- Activity (Rattus norvegicus [2]): 88%
- Activity (Mus musculus [3]): 20%

SMILES: CCCOC(=O)[C@H]1C[C@H]2CC[C@H]([C@H]1c1cccs1)N2C
- Activity (Mus musculus [3]): 27%
- Activity (Rattus norvegicus [4]): <20%
- Activity (Rattus norvegicus [5]): <20%

SMILES: CC[N+]12Cc3ccsc3[C@H]3[C@@H](C(=O)OC)C[C@H]1CC[C@H]32
- ED50 (Mus musculus [6]): 3.8 mg/kg
- Activity (Rattus norvegicus [5]): <20%

SMILES: CCCCCN1[C@@H]2CC[C@@H]1[C@@H](c1cccs1)[C@@H](C(=O)OCC)C2
- Activity (Mus musculus [7]): 13%
- Activity (Rattus norvegicus [4]): 65%
- Activity (Rattus norvegicus [8]): 61%

SMILES: COC(=O)[C@H]1C[C@H]2CC[C@H]([C@H]1c1cccs1)N2CCc1ccccc1
- Activity (Rattus norvegicus [1]): 29%
- Activity (Mus musculus [7]): 27%
- Activity (Rattus norvegicus [2]): 96%

SMILES: CCCCCOC(=O)[C@H]1C[C@H]2CC[C@H]([C@H]1c1cccs1)N2C
- Activity (Rattus norvegicus [2]): <20%
- Activity (Mus musculus [3]): 27%
- Activity (Rattus norvegicus [4]): <20%
- Activity (Rattus norvegicus [5]): <20%

SMILES: COC(=O)[C@H]1[C@@H](OC(=O)c2ccccc2)C[C@@H]2CC[C@H]1N2C
- Activity (Rattus norvegicus [9]): Active

SMILES: CC(C)OC(=O)[C@H]1C[C@H]2CC[C@H]([C@H]1c1ccccc1)N2C.Cl
- Activity (Rattus norvegicus [10]): 28%

SMILES: CCOC(=O)[C@H]1C[C@H]2CC[C@H]([C@H]1c1cccs1)N2C
- ED50 (Mus musculus [11]): 21 mg/kg
- Activity (Mus musculus [12]): Toxic
- ED50 (Rattus norvegicus [13]): 95 mg/kg
- Activity (Rattus norvegicus [5]): <20%

SMILES: CCOC(=O)N(CN1[C@@H]2CC[C@@H]1[C@@H](c1cccs1)[C@@H](C(=O)OC)C2)NC(=O)OC
- Activity (Rattus norvegicus [8]): 80%

SMILES: COC(=O)[C@H]1C[C@H]2CC[C@H]([C@H]1c1ccccc1)N2C.Cl (racemic)
- Activity (Rattus norvegicus [9]): 24%
- ED50 (Mus musculus [6]): 12 mg/kg
- Activity (Rattus norvegicus [14]): Toxic
- Activity (Rattus norvegicus [15]): <20%
- Activity (Mus musculus [16]): Toxic

SMILES: COC(=O)[C@H]1C[C@H]2CC[C@@H](N2)[C@H]1c1cccs1.Cl
- Drug metabolism [17]: metabolite_detected
- Drug metabolism [18]: metabolite_detected
- ED50 (Mus musculus [6]): 3.3 mg/kg
- Activity (Rattus norvegicus [19]): Active
- Activity (Rattus norvegicus [20]): 43%
- Activity (Mus musculus [12]): Toxic
- ED50 (Rattus norvegicus [21]; Rattus norvegicus, Sprague-Dawley, Tail, po, 1 h, read-out: ED50): 43 mg/kg

SMILES: COC(=O)[C@H]1C[C@H]2CC[C@H]([C@H]1c1cccs1)N2C.Cl
- Activity (Rattus norvegicus [9]; 88 mg/kg): 75%
- ED50 (Rattus norvegicus [22]): 6.9 mg/kg
- Ratio ED50 (Rattus norvegicus [23]): >10
- Activity (Rattus norvegicus [24]): Toxic
- Activity (Rattus norvegicus [25]): Toxic
- Activity (Rattus norvegicus [26]): Toxic
- Activity (Rattus norvegicus [27]): Toxic
- ED50 (Rattus norvegicus [21]): 59 mg/kg
- ED50 (Rattus norvegicus [28]): 60 mg/kg

SMILES: COC(=O)[C@H]1C[C@H]2CC[C@H]([C@H]1c1cccc(OC)c1)N2C.Cl
- Activity (Rattus norvegicus [10]): 24%
